Assay results reported in article PMC8000760, “Potential Effect of Pseudevernia furfuracea (L.) Zopf Extract and Metabolite Physodic Acid on Tumour Microenvironment Modulation in MCF-10A Cells” (Biomolecules, 2021).

Key:
[1] = test system: endothelial tube formation; conditions: cited from earlier work
angiogenesis in vivo = test system: angiogenesis in vivo; set-up: method as in PMID 22669534; conditions: chorioallantoic membrane assay and corneal angiogenesis assay; cited from earlier work
EMT process = conditions: through decreasing the mRNA level of E-cadherin; cited from earlier work
MCF-10A cells = experiment: Flow cytometry cell cycle phase distribution; format: cell-based, human; conditions: treatment alone (IC10 of PSE/Phy, or TGF-β 30 ng/mL)
Method: The MCF-10A and BJ-5ta cells were seeded and cultivated for 24 h in a complete medium. One day after seeding, 30 ng/mL of TGF-β was added and cultivated for 7 days (d). TGF-β was added to induce epithelial–mesenchymal transition in tested cell lines. Lichen extract P. furfuracea (L.) Zopf and its metabolite physodic acid were added at time 0 h and then incubated for 24, 48 and 72 h for various analyses, as described in Figure 1.
The MCF-10A cells (1 × 10^4/well) were seeded in Petri dishes and stimulated with […] TGF-β for 7 days. […] After detaching, using Trypsin/EDTA, cells were harvested and pelleted by centrifugation at 1200 rpm for 5 min. Pellet was re-suspended in PBS and divided for a particular analysis. Cells were stained prior to analyses with E-Cadherin Mouse mAb (Alexa Fluor 488 conjugate) or N-cadherin Rabbit mAb (Alexa Fluor 647 conjugate) (Cell Signalling) for 15 min at RT in the dark. For the cell cycle analyses, cells were re-suspended in staining solution (final concentration 0.1% Triton X-100, 0.5 mg/mL ribonuclease A and 0.025 mg/mL propidium iodide (PI)), and incubated in the dark at RT for 30 min. All samples were analysed using a FACS Calibur flow cytometer (Becton Dickinson, San Jose, CA, USA). The IgG isotype control checking was performed for every used antibody.

[2] = test system: N-cadherin, Snail, Twist, E-cadherin; set-up: method as in PMID 26371759; conditions: cited from earlier work
HUVEC = test system: HUVEC; set-up: method as in PMID 22669534; conditions: cited from earlier work

Which “anti-angiogenic activity by inhibiting endothelial tube formation” value [1] does the source give for `COC(=O)/C(=C1/OC(=O)C(c2ccccc2)=C1O)c1ccccc1` [vulpinic acid] here?
The value was “strong anti-angiogenic activity”.

Which endothelial tube formation [1] does the source give for `CCCCCC(=O)Cc1cc(O)cc(O)c1C(=O)Oc1cc(O)c(C(=O)O)c(CCCCC)c1` [olivetoric acid] here?
The endothelial tube formation was “inhibiting”.

With `CC(=O)c1c(O)c(C)c(O)c2c1OC1=CC(=O)C(C(C)=O)C(=O)C12C` (centres unmarked) [usnic acid] as the molecule, how does the angiogenesis in vivo (angiogenesis in vivo) read?
The angiogenesis in vivo was “inhibits”.

What about the “effect on the EMT process” value (EMT process) of the same molecule?
Its value is “inhibitory effect”.

What about the “anti-angiogenic activity by inhibiting endothelial tube formation” value [1] of the same molecule?
The value was “strong anti-angiogenic activity”.

With TGF-β as the molecule, how does the “G1 cell cycle phase distribution” value (MCF-10A cells; 24 h) read?
Its value is 74.55 ± 1.59.

What about the “G2/M cell cycle phase distribution” value (MCF-10A cells; 24 h) of the same molecule?
The value was 13.25 ± 2.49.

What about the “S cell cycle phase distribution” value (MCF-10A cells; 24 h) of the same molecule?
Its value is 11.15 ± 0.69.

And the “Sub G0 cell cycle phase distribution” value (MCF-10A cells; 24 h)?
Its value is 1.07 ± 0.22.

And the “G1 cell cycle phase distribution” value (MCF-10A cells; 48 h)?
The value was 83.05 ± 2.74.

And the “G2/M cell cycle phase distribution” value (MCF-10A cells; 48 h)?
Its value is 8.63 ± 1.69.

And the “S cell cycle phase distribution” value (MCF-10A cells; 48 h)?
Its value is 7.39 ± 0.88.

What about the “Sub G0 cell cycle phase distribution” value (MCF-10A cells; 48 h) of the same molecule?
The value was 0.94 ± 0.16.

And the “G1 cell cycle phase distribution” value (MCF-10A cells; 72 h)?
Its value is 81.35 ± 0.37.

And the “G2/M cell cycle phase distribution” value (MCF-10A cells; 72 h)?
The value was 10.85 ± 0.45.

What about the “S cell cycle phase distribution” value (MCF-10A cells; 72 h) of the same molecule?
The value was 6.61 ± 0.74.

What about the “Sub G0 cell cycle phase distribution” value (MCF-10A cells; 72 h) of the same molecule?
Its value is 1.22 ± 0.07.

For `COC(=O)c1c(C)c2c(c(C)c1O)OC(=O)c1c(C)c(Cl)c(O)c(C=O)c1O2` [physciosporin], which “changes in E-cadherin levels” value [2] is on record?
The value was “not observed”.

And the “level of EMT-associated proteins N-cadherin, Snail and Twist” value [2]?
Its value is “decrease”.

With `CC(=O)c1c(O)c(C)c(O)c2c1OC1=CC(=O)C(C(C)=O)C(=O)C12C` (stereo not drawn) [(+)- usnic acid] as the molecule, how does the “VEGF-induced HUVEC migration and tube formation” value (HUVEC) read?
Its value is “inhibits”.
